Test [1] deals with p185^Her-2/neu. The settings on record: cultured breast cancer cells; exogenous GLA supplementation; reference (16); cited from earlier work.
Another test deals with SK-Br3 cells. As to the kind of experiment: TUNEL apoptosis assay, SK-Br3. The class given is cell-based, human. The settings on record: GLA 10 μg/mL, trastuzumab 10 μg/mL, alone or together, 48 hours. As for the experimental part:
FIG. 6. […] After 72 hours, a TUNEL analysis was performed using the DeadEnd® Fluorometric TUNEL System (Promega Inc.) according to the manufacturer's protocol. The immunofluorescence photomicrographs of cells undergoing apoptosis (green staining) and the corresponding DAPI-counterstained photomicrographs are shown. […] Equal amounts of total protein (50 μg per lane) were subjected to Western blot analyses with a specific antibody against the p85 fragment of PARP, and then re-probed with a β-actin antibody. […] For each pair of columns, the height of the columns on the left represents the sum of the effect of each agent alone and, therefore, the expected apoptotic cell death if their effect was additive when used in combination. […] A) Cell surface expression of Her-2/neu protein in BT-474 and SK-Br3 cells was determined by flow cytometry using a mouse anti-Her-2/neu antibody directed against the extracellular domain of the p185^Her-2/neu oncoprotein (clone Ab-5; Oncogene Research Products; San Diego, Calif.). […] The mean fluorescence signal associated with cells for labeled p185^Her-2/neu was quantified using the Geo Mean (GM) fluorescence parameter provided with the software. […] Immunoreactive bands were detected by enhanced chemiluminescence reagent (Pierce, Rockford, Ill.). […] Densitometric values of protein bands were quantified using Scion Imaging Software (Scion Corp., Frederick, Md.).

The test system of test [2] is p185^Her-2/neu. As to the kind of experiment: In situ immunofluorescent staining of p185Her-2/neu. The class given is cell-based, human. The settings on record: BT-474; 48 hours. The text has this:
FIG. 2. Exogenous supplementation with OA synergistically enhances trastuzumab-induced down-regulation of p185^Her-2/neu. […] The amount of cell surface-associated p185^Her-2/neu was quantified by flow cytometric analyses using a specific antibody against the extracellular domain of p185^Her-2/neu (Ab-5), as described herein. The mean fluorescence signal±SD (n=3) was quantified using the geo mean fluorescence (GM) parameter provided with the Cell Quest Software (Becton Dickinson). […] After labeling, cells were washed thoroughly, and localization of p185^Her-2/neu was detected by indirect immunofluorescence by incubating with FITC-conjugated anti-mouse IgG. After counterstaining with DAPI, cells were examined and photographed using a Zeiss fluorescent microscope equipped with a built-in camera. […] Similar results were obtained in three independent experiments. […] Similar results were obtained in three independent experiments. Cells were seeded at a density of 1×10^4 cells/well in a four-well chamber slide (Nalge Nunc International, Rochester, N.Y.). […] Indirect immunofluorescence was recorded on a Zeiss microscope. […] Thereafter, p185^Her-2/neu cellular localization was assessed using the anti-erbB2, Ab-3 mouse monoclonal antibody (Oncogene Research Products), which is directed against the C-terminal 14 amino acids of p185^Her-2/neu. […]

The test system of a further test is p27^Kip1. As to the kind of experiment: Western blot of p27Kip1 expression. The test is classed as cell-based, human. The settings on record: BT-474; 72 hours; OA, trastuzumab or combination. The text has this:
(§1) Densitometric values of protein bands were quantified using Scion Imaging Software (Scion Corp., Frederick, Md.).
Background: Immunoblotting shows a protein as a band on a membrane.

Test [3] has as its system phospho-MAPK and phospho-Ser^473 AKT. As to the kind of experiment: Western blot of phospho-MAPK and phospho-AKT. The class given is cell-based, human. The settings on record: BT-474; 48 hours; OA 5 μM, trastuzumab 10 μg/ml in combination.
From the text: as §1

On to `CCCCCC=CCC=CCC=CCCCCC(=O)O` [GLA, 6,9,12-octadecatrienoic acid], for which, in the test on p185^Her-2/neu [1], the “proteolytic cleavage of the extracellular domain of p185^Her-2/neu” value was “significantly diminished”. Also, the “cells that underwent apoptosis (TUNEL)” value in the test on SK-Br3 cells is on record as 3% (95% CI=2 to 4%).

With `CCCCCCCCC=CCCCCCCCC(=O)O` [OA, 9-octadecenoic acid], the “p185^Her-2/neu-associated membrane (cell surface) staining” value in the test with p185^Her-2/neu [2] is reported as “markedly reduced”. The “expression of p27^Kip1” value in the test with p27^Kip1 is “slight increase”. The “active MAPK and active AKT (phospho-MAPK, phospho-Ser^473 AKT)” value in test [3] was “inhibited active MAPK and active AKT”.

The values above are taken from patent publication US20070207975A1, “Materials and methods for treating and preventing Her-2/neu overexpressing, FAS-elevated cancer cells” (EVANSTON NORTHWESTERN HEALTHCARE, priority 2006, published 2007).
